Data reported in patent publication US8728470B2, “CAB molecules” (Danisco US Inc., priority 2004, dated 2014).

Experiment: PK and tissue distribution of GC-Mel/Mel at various intervals after CAB 1.11i in TLS174T xenograft mice
Format: in vivo, Ncr athymic nude mice
Experimental: We assessed the tumor retention characteristics of CAB1.11i by monitoring the formation of Mel from the administration of GC-Mel. Dosing solutions were prepared on the day of dosing, within 60 minutes of administration.
The concentration of the formulation of GC-Mel in bicarbonate/sucrose was based on average […] weight, the desired volume of administration and a dose level of 150 mg/kg. GC-Mel was weighed out and, based on this weight, the appropriate amount of sodium bicarbonate to neutralize all 3 equivalents of the three carboxylic acid sites of GC-Mel was determined. Vehicle was prepared in the required volume by adding the precalculated sodium bicarbonate solution in 5% aqueous sucrose. Vehicle was prechilled at 4° C. Cold vehicle was added to the GC-Mel powder and the mixture was vortexed and sonicated to achieve speedy dissolution.
The animals were be implanted subcutaneously on the flank with 2×10^6 TLS174T cells, a human colorectal tumor line, in 100 μl of phosphate buffered saline. Beginning approximately one week after tumor cell implant, tumors were measured every 3 to 4 days. When the tumors reached approximately 100-250 mm^3, 156 animals were selected based on tumor size and randomized into 7 groups, resulting in a non-significant difference in the mean tumor size between groups at the start of the experiment.
Mice were warmed with a heating lamp and heating pad, placed in a restrainer and the test compounds were administered by bolus intravenous injection via the tail vein. For the blood sampling, all mice were anesthetized by isoflurane inhalation at the time of sample collection. Blood was collected by cardiac puncture into tubes containing EDTA and placed on ice. Tubes were centrifuged at 4000 RPM for two minutes. The plasma fraction was removed into a pre-labeled microfuge tube and placed on dry ice or liquid nitrogen. Sample concentrations were determined.
Tissue samples were rinsed 1× in phosphate buffered saline to remove blood. The samples were snap frozen using liquid nitrogen or dry ice. Tissue samples were stored at −70° C. prior to analysis. […]

Compound: N[C@@H](Cc1ccc(N(CCCl)CCCl)cc1)C(=O)O [Mel, Melphalan]
- plasma Mel level (GC-Mel 150 mg/kg given 96 hrs after CAB 1.11i 1 mg/kg): decreased to near background (concomitant) levels
- plasma and kidney exposure to Mel (AUC) (with increased interval between CAB 1.11i and GC-Mel doses, FIG. 17): decreased
- systemic melphalan exposure (AUC) (with increasing interval, FIG. 18): decreased
